pIC50: −log10 of the molar value.
Tested on: 496974-208-R-J2-PDC complex spheroids, growth % test/control
Test: Anticancer human tumor 496974-208-R-J2-PDC patient-derived pancreatic carcinoma cell line growth inhibition [CLK]
Settings: for pIC50: curve of first compound; for viability, T/C: stronger effect = lower value; active means viability on the fitted dose curve at most 10% of control; inactive means the rest
Excerpt: A high-throughput screen of multi-cell type tumor spheroids was designed to identify active combinations of […] and targeted small molecules. Complex spheroids include a stromal component modeled by human endothelial cells (HUVEC) and fibroblasts modeled by human mesenchymal stem cells (MSCs). The concentration ranges selected for each drug and investigational agent were based upon clinically achievable concentrations if the clinical Cmax of the agent was known.
Compounds. The drugs and investigational agents: cirtuvivint (SM08502; NSC835563), CC-671 (NSC850746), vemurafenib (NSC761431), tapotoclax (NSC804041), sotorasib (NSC818433), adagrasib (NSC831453), MRTX-1133 (NSC836407), BAY2416964 (NSC825713), copanlisib (NSC816437), inavolisib (NSC800729), abemaciclib (NSC768073), osimertinib (NSC779217), entinostat (NSC756642), eltanexor (KPT-8602, NSC794443), venetoclax (NSC766270), ceralasertib (NSC777638), bortezomib (NSC756655), olaparib (NSC753686), talazoparib (NSC767125), alisertib (NSC759677), peposertib (NSC802822), gemcitabine (NSC613327), 5-fluorouracil (NSC19893), SN-38 (NSC673596), oxaliplatin (NSC266046), paclitaxel (NSC125973), and doxorubicin (NSC123127), were obtained from the National Cancer Institute (NCI) Developmental Therapeutics Program Chemical Repository. The FDA-approved anticancer drug set is available from the Developmental Therapeutics Program at https://dtp.cancer.gov/organization/dscb/obtaining/available plates.htm. […] The stock solutions were prepared in dimethyl sulfoxide (DMSO, Sigma-Aldrich, St. Louis, MO, cat. D2650), except for the platinum complexes which were prepared in saline (Quality Biological, Gaithersburg, MD, cat. 114-055-101), at 800-fold the tested concentration and stored at -70 degrees C prior to their use. All drugs and investigational agents were tested over a range starting from a high concentration at or near the clinical Cmax and decreasing in half-log increments. If the clinical Cmax for an agent had not been determined, the highest concentration tested was 10 microM.
Cell Culture. All cells were maintained in an incubator at 37 degrees C and 5% CO2 with 95% humidity. The PDC lines were cultured according to standard operating procedures established by the NCI PDMR. Briefly, all PDCs were thawed and cultured in Matrigel-coated flasks prepared with a working solution of 1X Ham's F-12 nutrient mix, without supplementation (Invitrogen, Waltham, MA, cat. 11765054), 100 U/mL penicillin-streptomycin (Invitrogen, cat. 15140122), and 2.5% Matrigel (Corning Inc., Corning, NY, cat. 354248) for the first three passages. The 947758-054-R-J2-PDC line was cultured in 6B/Colon 1A media, which includes advanced DMEM/F-12 (Thermo Fisher Scientific, cat. 12634028), 10 mM HEPES (Thermo Fisher Scientific, cat. 15630080), 1X GlutaMAX supplement (Thermo Fisher Scientific, cat. 35050061), 0.1 mg/mL primocin (InvivoGen, cat. ant-pm-2), 10% defined fetal bovine serum, heat inactivated (HyClone Laboratories Inc., cat. SH30070.03HI), 1.25 mM N-Acetyl-L-cysteine (Sigma-Aldrich, cat. A9165), 10 mM nicotinamide (Sigma-Aldrich, cat. N0636), 1X B-27 supplement (Thermo Fisher Scientific, cat. 17504044), 1X N-2 supplement (Thermo Fisher Scientific, cat. 17502048), and 10 microM Y-27632 dihydrochloride (Tocris Bioscience, cat. 1254). The 876862-298-R-J1-PDC was cultured in 6E media, which includes all 6B/Colon 1A media components plus 50% L-WRN conditioned media (ATCC, cat. CRL-3276), 50 ng/mL recombinant human EGF recombinant protein (hEGF; Thermo Fisher Scientific, cat. PHG0311), 10 ng/mL recombinant human fibroblast growth factor 10 (hGFG-10; PeproTech, cat. 100-26), 1 ng/mL recombinant human fibroblast growth factor 2 (hFGF-2; PeproTech, cat. 100-18B), and 1 µM prostaglandin E2 (PGE2; Tocris, cat. 2296). The 227483-062-R1-J1-PDC line was cultured in Panc media, containing all 6E components except hFGF-2, with the addition of 500 nM SB-431542 (Selleckchem, cat. S1067) and 10 nM gastrin (Tocris, cat. 3006). […]

[1] = second compound 0.0316 µM, first compound 0.0316 µM
[2] = second compound 0.0316 µM, first compound 0.1 µM
[3] = second compound 0.0316 µM, first compound 0.316 µM
[4] = second compound 0.0316 µM, first compound 1 µM
[5] = second compound 0.0316 µM, first compound 3.16 µM
[6] = second compound 0.0316 µM, first compound 10 µM
[7] = second compound 0.1 µM, first compound 0.0316 µM
[8] = second compound 0.1 µM, first compound 0.1 µM
[9] = second compound 0.1 µM, first compound 0.316 µM
[10] = second compound 0.1 µM, first compound 1 µM
[11] = second compound 0.1 µM, first compound 3.16 µM
[12] = second compound 0.1 µM, first compound 10 µM
[13] = second compound 0.316 µM, first compound 0.0316 µM
[14] = second compound 0.316 µM, first compound 0.1 µM
[15] = second compound 0.316 µM, first compound 0.316 µM
[16] = second compound 0.316 µM, first compound 1 µM
[17] = second compound 0.316 µM, first compound 3.16 µM
[18] = second compound 0.316 µM, first compound 10 µM
[19] = second compound 1 µM, first compound 0.0316 µM
[20] = second compound 1 µM, first compound 0.1 µM
[21] = second compound 1 µM, first compound 0.316 µM
[22] = second compound 1 µM, first compound 1 µM
[23] = second compound 1 µM, first compound 3.16 µM
[24] = second compound 1 µM, first compound 10 µM
[25] = second compound 3.16 µM, first compound 0.0316 µM
[26] = second compound 3.16 µM, first compound 0.1 µM
[27] = second compound 3.16 µM, first compound 0.316 µM
[28] = second compound 3.16 µM, first compound 1 µM
[29] = second compound 3.16 µM, first compound 3.16 µM
[30] = second compound 3.16 µM, first compound 10 µM
[31] = second compound 10 µM, first compound 0.0316 µM
[32] = second compound 10 µM, first compound 0.1 µM
[33] = second compound 10 µM, first compound 0.316 µM
[34] = second compound 10 µM, first compound 1 µM
[35] = second compound 10 µM, first compound 3.16 µM
[36] = second compound 10 µM, first compound 10 µM
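Further: spheroids exposed to the drugs for 7 days before readout.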
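Wherever viability, T/C is given: 100% = DMSO vehicle control wells.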

CCCS(=O)(=O)Nc1ccc(F)c(C(=O)c2c[nH]c3ncc(-c4ccc(Cl)cc4)cc23)c1F + CN1CCN(c2cc(C(=O)Nc3cc4cc(-c5cnn(C)c5)ccc4cn3)ccn2)CC1
inactive: viability, T/C [1] 100% | viability, T/C [2] 101% | viability, T/C [3] 104% | viability, T/C [4] 112% | viability, T/C [5] 103% | viability, T/C [6] 42.9% | viability, T/C [7] 79.8% | viability, T/C [8] 92.3% | viability, T/C [9] 95.8% | viability, T/C [10] 95.3% | viability, T/C [11] 82.8% | viability, T/C [12] 44.8% | viability, T/C [13] 7.31% | viability, T/C [14] 7.89% | viability, T/C [15] 8.26% | viability, T/C [16] 12.3% | viability, T/C [17] 13.7% | viability, T/C [18] 12.7%
> 7.50: pIC50 (second compound 0.316 µM) | pIC50 (second compound 1 µM) | pIC50 (second compound 3.16 µM) | pIC50 (second compound 10 µM)
5.06: pIC50 (second compound 0.0316 µM) | pIC50 (second compound 0.1 µM)
active: viability, T/C [19] 0.4% | viability, T/C [20] 1.65% | viability, T/C [21] 0.49% | viability, T/C [22] 0.54% | viability, T/C [23] 0.67% | viability, T/C [24] 1.12% | viability, T/C [25] 0.36% | viability, T/C [26] 0.59% | viability, T/C [27] 1.11% | viability, T/C [28] 0.45% | viability, T/C [29] 1.82% | viability, T/C [30] 1.33% | viability, T/C [31] 0.23% | viability, T/C [32] 0.7% | viability, T/C [33] 0.31% | viability, T/C [34] 1.08% | viability, T/C [35] 1.52% | viability, T/C [36] 0.99%

COC1C=CCC(C)C(C)S(=O)(=O)NC(=O)c2ccc3c(c2)N(CC2CCC21)CC1(CCCc2cc(Cl)ccc21)CO3 (centres undefined) + CN1CCN(c2cc(C(=O)Nc3cc4cc(-c5cnn(C)c5)ccc4cn3)ccn2)CC1
> 7.50: pIC50 (second compound 0.316 µM) | pIC50 (second compound 1 µM) | pIC50 (second compound 3.16 µM) | pIC50 (second compound 10 µM)
5.00: pIC50 (second compound 0.0316 µM)
active: viability, T/C [13] 6.55% | viability, T/C [14] 6.86% | viability, T/C [15] 6.27% | viability, T/C [16] 5.01% | viability, T/C [17] 6.46% | viability, T/C [18] 9.02% | viability, T/C [19] 0.46% | viability, T/C [20] 2.1% | viability, T/C [21] 1.64% | viability, T/C [22] 0.36% | viability, T/C [23] 0.6% | viability, T/C [24] 2.57% | viability, T/C [25] 0.56% | viability, T/C [26] 1.19% | viability, T/C [27] 0.48% | viability, T/C [28] 0.35% | viability, T/C [29] 3.56% | viability, T/C [30] 1.06% | viability, T/C [31] 1.5% | viability, T/C [32] 0.48% | viability, T/C [33] 0.41% | viability, T/C [34] 0.29% | viability, T/C [35] 3.22% | viability, T/C [36] 0.75%
5.17: pIC50 (second compound 0.1 µM)
inactive: viability, T/C [1] 93.4% | viability, T/C [2] 87.3% | viability, T/C [3] 86.7% | viability, T/C [4] 76.2% | viability, T/C [5] 76.1% | viability, T/C [6] 48.3% | viability, T/C [7] 79.9% | viability, T/C [8] 78.4% | viability, T/C [9] 75.4% | viability, T/C [10] 69.1% | viability, T/C [11] 66.3% | viability, T/C [12] 42%
